Reference: PMC5773580, “A synthetic combinatorial approach to disabling deviant Hedgehog signaling” (Scientific Reports, 2018)
Values joined by “and” are separate entries in the source; they are usually repeats but may differ in a detail not shown here. Identical values can stand only once.

How the values were obtained:
HDAC5 = target: T1, HDAC5 (Homo sapiens, UniProt Q9UQL6); assay: In vitro HDAC profiling (deacetylation assay), HDAC5; type: biochemical; details: for HDAC Activity (Fluorescent counts): Repeat1/Repeat 2
T1 construct: purchased BPS Bioscience #50051-11
T1 sequence (Q9UQL6 whole entry): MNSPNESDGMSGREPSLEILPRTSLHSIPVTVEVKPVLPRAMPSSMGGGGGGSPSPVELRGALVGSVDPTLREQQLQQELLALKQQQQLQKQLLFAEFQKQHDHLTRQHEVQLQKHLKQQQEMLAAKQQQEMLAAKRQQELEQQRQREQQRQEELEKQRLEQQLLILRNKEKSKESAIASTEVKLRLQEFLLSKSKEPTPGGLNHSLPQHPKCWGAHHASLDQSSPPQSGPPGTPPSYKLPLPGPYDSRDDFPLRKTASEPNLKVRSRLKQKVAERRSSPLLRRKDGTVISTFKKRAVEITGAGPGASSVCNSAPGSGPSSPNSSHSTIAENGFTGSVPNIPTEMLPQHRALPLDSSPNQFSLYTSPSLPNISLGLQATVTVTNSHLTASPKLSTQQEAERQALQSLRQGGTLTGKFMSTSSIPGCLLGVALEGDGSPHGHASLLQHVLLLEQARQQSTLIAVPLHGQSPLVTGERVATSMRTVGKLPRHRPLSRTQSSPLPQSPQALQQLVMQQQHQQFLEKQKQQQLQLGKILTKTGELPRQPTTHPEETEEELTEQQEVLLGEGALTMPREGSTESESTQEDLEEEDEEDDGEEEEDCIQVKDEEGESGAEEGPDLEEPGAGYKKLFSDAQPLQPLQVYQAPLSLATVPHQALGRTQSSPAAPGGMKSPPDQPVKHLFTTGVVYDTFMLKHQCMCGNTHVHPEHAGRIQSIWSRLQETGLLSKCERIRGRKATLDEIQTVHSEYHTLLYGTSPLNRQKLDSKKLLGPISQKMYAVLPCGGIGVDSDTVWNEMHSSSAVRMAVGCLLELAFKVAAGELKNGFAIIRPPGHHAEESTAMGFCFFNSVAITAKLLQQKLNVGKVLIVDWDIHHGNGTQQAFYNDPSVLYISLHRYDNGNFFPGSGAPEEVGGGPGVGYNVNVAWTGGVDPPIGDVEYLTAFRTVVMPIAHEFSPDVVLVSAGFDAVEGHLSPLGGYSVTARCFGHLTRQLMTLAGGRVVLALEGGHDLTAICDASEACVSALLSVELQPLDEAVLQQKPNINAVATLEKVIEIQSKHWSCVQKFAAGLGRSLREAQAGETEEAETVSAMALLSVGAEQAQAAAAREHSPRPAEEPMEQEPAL
Protocol: (§1) HDAC profiling was performed at BPS Bioscience (San Diego, CA). All of the compounds are dissolved in DMSO. A series of dilutions of the compounds were prepared with 10% DMSO in HDAC assay buffer (#50031) and 5 µl of the dilution was added to a 50 µl reaction so that the final concentration of DMSO is 1% in all of reactions. All of the enzymatic reactions were conducted in duplicate at 37 °C for 30 mins, except that the enzyme reactions for HDAC11 were at room temperature for 3 hrs. All of the reactions were performed in a 50 µl mixture containing HDAC assay buffer, 5 µg BSA, an HDAC substrate [HDAC Substrate 3 (BPS number 50037) or HDAC Class 2a Substrate 1 (BPS number 50040)], an HDAC enzyme (#50051-11) and a test compound. After enzymatic reactions, 50 μl of HDAC Developer (#50030) was added to each well and the plate was incubated at room temperature for an additional 20 mins. Fluorescence intensity was measured at an excitation of 360 nm and an emission of 460 nm using a Tecan Infinite M1000 microplate reader. HDAC activity assays were performed in duplicates at each concentration. The fluorescent intensity data were analyzed using the computer software, Graphpad Prism. In the absence of the compound, the fluorescent intensity (Ft) in each data set was defined as 100% activity. In the absence of HDAC, the fluorescent intensity (Fb) in each data set was defined as 0% activity. The percent activity in the presence of each compound was calculated according to the following equation: %activity = (F − Fb)/(Ft − Fb), where F = the fluorescent intensity in the presence of the compound. The values of % activity versus a series of compound concentrations were then plotted using non-linear regression analysis of Sigmoidal dose-response curve generated with the equation Y = B + (T − B)/1 + 10((LogIC50 − X) × Hill Slope), where Y = percent activity, B = minimum percent activity, T = maximum percent activity, X = logarithm of compound and Hill Slope = slope factor or Hill coefficient. The IC50 value was determined by the concentration causing a half-maximal percent activity.

HDAC8 = target: T2, HDAC8 (Homo sapiens, UniProt Q9BY41); assay: In vitro HDAC profiling (deacetylation assay), HDAC8; type: biochemical; details: for HDAC Activity (Fluorescent counts): Repeat1/Repeat 2
T2 construct: purchased BPS Bioscience #50051-11
T2 sequence (Q9BY41 1-377): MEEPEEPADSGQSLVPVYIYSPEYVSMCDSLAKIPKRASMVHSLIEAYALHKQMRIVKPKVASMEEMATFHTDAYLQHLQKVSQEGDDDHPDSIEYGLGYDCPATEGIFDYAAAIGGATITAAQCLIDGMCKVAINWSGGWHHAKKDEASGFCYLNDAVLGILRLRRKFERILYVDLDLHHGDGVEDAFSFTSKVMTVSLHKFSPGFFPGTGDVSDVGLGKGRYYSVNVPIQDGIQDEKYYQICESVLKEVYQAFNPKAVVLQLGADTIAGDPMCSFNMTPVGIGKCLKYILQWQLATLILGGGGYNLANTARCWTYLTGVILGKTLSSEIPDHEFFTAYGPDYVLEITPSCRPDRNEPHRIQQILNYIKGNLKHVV
Protocol: as §1

HDAC10 = target: T3, HDAC10 (Homo sapiens, UniProt Q969S8); assay: In vitro HDAC profiling (deacetylation assay), HDAC10; type: biochemical; details: for HDAC Activity (Fluorescent counts): Repeat1/Repeat 2
T3 construct: purchased BPS Bioscience #50051-11
T3 sequence (Q969S8 1-669): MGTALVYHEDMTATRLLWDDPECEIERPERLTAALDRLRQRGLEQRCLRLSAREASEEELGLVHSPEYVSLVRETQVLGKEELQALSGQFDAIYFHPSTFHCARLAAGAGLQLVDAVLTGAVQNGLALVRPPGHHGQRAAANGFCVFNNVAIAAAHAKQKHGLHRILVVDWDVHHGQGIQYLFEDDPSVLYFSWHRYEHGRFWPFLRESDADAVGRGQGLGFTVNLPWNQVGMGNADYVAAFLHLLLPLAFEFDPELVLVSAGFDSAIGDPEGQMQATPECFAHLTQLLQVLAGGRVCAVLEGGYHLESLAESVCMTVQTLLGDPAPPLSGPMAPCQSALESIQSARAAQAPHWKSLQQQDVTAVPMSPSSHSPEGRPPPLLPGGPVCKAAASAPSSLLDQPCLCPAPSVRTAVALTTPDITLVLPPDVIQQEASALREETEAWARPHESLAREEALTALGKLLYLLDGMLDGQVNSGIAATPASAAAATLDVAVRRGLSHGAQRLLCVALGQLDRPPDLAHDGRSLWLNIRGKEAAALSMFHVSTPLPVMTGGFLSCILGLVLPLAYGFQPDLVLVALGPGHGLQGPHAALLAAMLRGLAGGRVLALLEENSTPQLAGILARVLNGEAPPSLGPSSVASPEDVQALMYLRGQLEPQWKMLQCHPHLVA
Protocol: as §1

[1] = test system: nuclear HDAC activity (Ac-H3) in NIH-3T3 cells; assay: Acetylation assay, Western blotting for acetylated histone 3 (Ac-H3); type: cell-based; details: 48hrs, Western blot
Protocol: (§2) For analyzing acetylation status of histone 3 and tubulin, NIH3T3 cells were grown to confluence in 6-well plates. After 48hrs of treatment with indicated chemicals, cells were lysed in RIPA buffer or 1% NP40/phosphate buffered saline/protease inhibitors (SIGMA, #S8820), the lysate cleared using a microcentrifuge, then 6 × sample loading buffer (Bioland Scientific) added to the supernatant. Proteins were separated on SDS-PAGE (BioRad Criterion TGX Precast Gels). Antibodies used for analyzing the blots were: acetylated tubulin (SIGMA, #T6793), tubulin, acetyl-histone H3 (Lys23), and histone H3 (Cell Signaling Technology, #2125 S, #8848 and #9717, respectively). Chemiluminescence was detected using a Li-COR Odyssey Imaging System.

[2] = test system: HDAC activity (acetylated tubulin) in NIH-3T3 cells; assay: Acetylation assay, Western blot of acetylated tubulin; type: cell-based; details: 48hrs
Protocol: as §2

[3] = in vitro deacetylation assay, duplicates

O=C(CCCCCCC(=O)Nc1ccc(Cl)c(C(=O)Nc2ccc(NC(=O)c3cc(Cl)ccc3Cl)cc2)c1)NO [IHR-SAHA]
HDAC Activity (Fluorescent counts) (HDAC5; HDAC5, WW01 0 Log nM): 30976 Fluorescent counts and 29141 Fluorescent counts
HDAC Activity (Fluorescent counts) (HDAC5; HDAC5, WW01 0.5 Log nM): 29969 Fluorescent counts and 29451 Fluorescent counts
HDAC Activity (Fluorescent counts) (HDAC5; HDAC5, WW01 1 Log nM): 31041 Fluorescent counts and 29968 Fluorescent counts
HDAC Activity (Fluorescent counts) (HDAC5; HDAC5, WW01 1.5 Log nM): 29717 Fluorescent counts and 27943 Fluorescent counts
HDAC Activity (Fluorescent counts) (HDAC5; HDAC5, WW01 2 Log nM): 26390 Fluorescent counts and 24587 Fluorescent counts
HDAC Activity (Fluorescent counts) (HDAC5; HDAC5, WW01 2.5 Log nM): 24330 Fluorescent counts and 23282 Fluorescent counts
HDAC Activity (Fluorescent counts) (HDAC5; HDAC5, WW01 3 Log nM): 21924 Fluorescent counts and 21338 Fluorescent counts
HDAC Activity (Fluorescent counts) (HDAC5; HDAC5, WW01 3.5 Log nM): 23432 Fluorescent counts and 20698 Fluorescent counts
HDAC Activity (Fluorescent counts) (HDAC5; HDAC5, WW01 4 Log nM): 19760 Fluorescent counts and 18237 Fluorescent counts
HDAC Activity (Fluorescent counts) (HDAC5; HDAC5, WW01 -0.5 Log nM): 30061 Fluorescent counts and 30641 Fluorescent counts
IC50 (HDAC5; [3]): > 10 µM
HDAC Activity (Fluorescent counts) (HDAC8; HDAC8, WW01 0 Log nM): 21093 Fluorescent counts and 21821 Fluorescent counts
HDAC Activity (Fluorescent counts) (HDAC8; HDAC8, WW01 0.5 Log nM): 22364 Fluorescent counts and 22102 Fluorescent counts
HDAC Activity (Fluorescent counts) (HDAC8; HDAC8, WW01 1 Log nM): 22562 Fluorescent counts and 22110 Fluorescent counts
HDAC Activity (Fluorescent counts) (HDAC8; HDAC8, WW01 1.5 Log nM): 21528 Fluorescent counts and 20488 Fluorescent counts
HDAC Activity (Fluorescent counts) (HDAC8; HDAC8, WW01 2 Log nM): 18696 Fluorescent counts and 20642 Fluorescent counts
HDAC Activity (Fluorescent counts) (HDAC8; HDAC8, WW01 2.5 Log nM): 20242 Fluorescent counts and 19075 Fluorescent counts
HDAC Activity (Fluorescent counts) (HDAC8; HDAC8, WW01 3 Log nM): 18387 Fluorescent counts and 19845 Fluorescent counts
HDAC Activity (Fluorescent counts) (HDAC8; HDAC8, WW01 3.5 Log nM): 17109 Fluorescent counts and 19683 Fluorescent counts
HDAC Activity (Fluorescent counts) (HDAC8; HDAC8, WW01 4 Log nM): 16686 Fluorescent counts and 18294 Fluorescent counts
HDAC Activity (Fluorescent counts) (HDAC8; HDAC8, WW01 -0.5 Log nM): 19254 Fluorescent counts and 22456 Fluorescent counts
IC50 (HDAC8; [3]): > 10 µM
HDAC Activity (Fluorescent counts) (HDAC10; HDAC10, WW01 0 Log nM): 21183 Fluorescent counts and 21616 Fluorescent counts
HDAC Activity (Fluorescent counts) (HDAC10; HDAC10, WW01 0.5 Log nM): 20859 Fluorescent counts and 21260 Fluorescent counts
HDAC Activity (Fluorescent counts) (HDAC10; HDAC10, WW01 1 Log nM): 19414 Fluorescent counts and 20650 Fluorescent counts
HDAC Activity (Fluorescent counts) (HDAC10; HDAC10, WW01 1.5 Log nM): 17046 Fluorescent counts and 19100 Fluorescent counts
HDAC Activity (Fluorescent counts) (HDAC10; HDAC10, WW01 2 Log nM): 13500 Fluorescent counts and 13556 Fluorescent counts
HDAC Activity (Fluorescent counts) (HDAC10; HDAC10, WW01 2.5 Log nM): 9393 Fluorescent counts and 9233 Fluorescent counts
HDAC Activity (Fluorescent counts) (HDAC10; HDAC10, WW01 3 Log nM): 6324 Fluorescent counts and 6307 Fluorescent counts
HDAC Activity (Fluorescent counts) (HDAC10; HDAC10, WW01 3.5 Log nM): 4593 Fluorescent counts and 4402 Fluorescent counts
HDAC Activity (Fluorescent counts) (HDAC10; HDAC10, WW01 4 Log nM): 3949 Fluorescent counts and 4170 Fluorescent counts
HDAC Activity (Fluorescent counts) (HDAC10; HDAC10, WW01 -0.5 Log nM): 22257 Fluorescent counts and 21526 Fluorescent counts
IC50 (HDAC10; [3]): 0.174 µM
HDAC inhibitory activity, accumulation of acetylated histone 3 (ratio Ac-H3 to total H3) [1]: retain HDAC inhibitory activity
HDAC inhibitory activity, acetylated tubulin accumulation (ratio to total tubulin), compared with SAHA [2]: increase in anti-HDAC activity
